{"source": "patent US9028855B2", "about": "“Plant additives and uses thereof to modulate the synthesis of membrane glycerolipids in planta” (Commissariat a l'Energie Atomique et aux Energies …, priority 2009, dated 2015)", "key": {"[1]": {"system": "phosphate transporter PHT1;4", "assay": "8′G::GUS, follow-up of the expression of the phosphate transporter PHT1;4 (GUS staining)", "assay_type": "in vivo, A. thaliana", "settings": "compound added to the cultivation medium", "from_the_text": "8′G cell line was obtained as follows: for the PHT1;4 promoter fusion, a 2 kb region upstream of the ORF of PHT1;4 was cloned in the vector pENTR/D-TOPO (pENTRT™/D-TOPO® Cloning Kit, ref. K2400-20, Invitrogen) and transferred to pKGWFS7 (Karimi et al., 2002) by recombination using Gateway BP (Gateway® BP Clonase® enzyme mix, ref. 11789-013, Invitrogen) and LR Clonase enzyme mixes (LR Clonase® II Plus enzyme, ref. 12538-120, Invitrogen), respectively, to produce the pPHT1;4:GUS-GFP gene fusion. This fusion was then introduced into the Arabidopsis genome via the Agrobacterium-mediated transformation system (Logemann et al., 2006).\n(§1) Plants were examined for GUS activity by dipping the samples in a GUS staining solution (50 mM sodium phosphate buffer pH 7.0; 0.01% Triton X-100, 1 mM K3Fe(CN)6, 1 mM K4Fe(CN)6, 1 mg/ml 5-dromo-4-chloro-3-indolyl (3-D-GLUCURONIDE (X-Gluc A) and incubated at 37° C. over-night. After staining, the plants were fixed 2 hours in 50 mM sodium phosphate buffer pH 7.0; 1% glutaraldehyde; 4% formaldehyde."}, "PHT1;4": {"system": "PHT1;4", "assay": "Chemical genetic screen, pPHT1;4::GUS line (GUS activity in root tip)", "assay_type": "in vivo, A. thaliana", "settings": "plant grown on high phosphate medium (500 μM), FIG. 2", "description": "pPHT1;4::GUS (DCJ 10) cell line is as described by Misson et al. (Misson et al., 2004). This cell line expresses the GUS reporter under the control of the promoter of the pht1;4 gene.\nas §1\nChemical genetic screen was based on PHT1;4 expression using the line pPHT1;4::GUS (Misson et al., 2004). […] The formula of MC2 is the following: […]"}, "A. thaliana": {"system": "A. thaliana", "assay": "Root growth (primary root) of plants on high phosphate medium supplied with compound", "assay_type": "in vivo", "settings": "expressed as a percentage having regard to a control; +P control 100, −P 20", "from_the_text": "In response to phosphate starvation, the primary root growth is inhibited (Svistoonoff et al., 2007)."}, "enzyme MGD3": {"system": "enzyme MGD3", "assay": "MGD3::GUS, follow-up of the expression of the gene encoding the enzyme MGD3 (GUS staining)", "assay_type": "in vivo, A. thaliana", "settings": "high phosphate medium + MC2 5 μM, FIG. 9", "description": "pMGD3:GUS cells are as described by Kobayashi et al. (Kobayashi et al., 2004). In these cells, the GUS reporter is expressed under the control of the mgd3 promoter. […] Plants were examined for GUS activity by dipping the samples in a GUS staining solution (50 mM sodium phosphate buffer pH 7.0; 0.01% Triton X-100, 1 mM K3Fe(CN)6, 1 mM K4Fe(CN)6, 1 mg/ml 5-dromo-4-chloro-3-indolyl (3-D-GLUCURONIDE (X-Gluc A) and incubated at 37° C. over-night. After staining, the plants were fixed 2 hours in 50 mM sodium phosphate buffer pH 7.0; 1% glutaraldehyde; 4% formaldehyde. In response to phosphate starvation, the lipid metabolism is modified (Benning and Ohta, 2005). Plants preferentially synthesize sulpho- and galacto-lipids instead of phospholipids. Several enzymes are involved in this remobilisation."}}}
{"compound": "Cc1cccc(NC=C2C(=O)CC(C)(C)CC2=O)n1", "note": "[MC2]", "values": [{"measurement": "PHT1;4 expression (in words, summary of analogues)", "setting": "[1]", "value": "induce expression of the Pht1;4 gene"}, {"measurement": "expression of PHT1;4 (pPHT1;4::GUS)", "setting": "PHT1;4", "value": "induce the expression of PHT1;4"}, {"measurement": "Root Growth", "setting": "A. thaliana", "value": "51 % of control"}, {"measurement": "MGD3 expression (in words)", "setting": "enzyme MGD3", "value": "strongly expressed"}]}
